Assay results: US11491460B2, “Porous cyclodextrin polymeric materials and methods of making and using same” (Cornell University, priority 2015, dated 2022)
Where a name gives a salt, the structure may show the parent alone.

What was measured:
[1] = Micropollutant adsorption kinetics experiments on CCAC; conditions: CCAC 10 mg/L, MP 1 μg/L
[2] = Micropollutant adsorption kinetics experiments on P-CDP; conditions: P-CDP 10 mg/L, MP 1 μg/L
[3] = Batch adsorption kinetic studies of organic pollutants on P-CDP; conditions: estimated from the equilibrium efficiency value from the batch kinetic studies
[4] = Langmuir parameters of pollutant adsorption on P-CDP (Table 6); assay type: binding
From the text: H. Thermodynamic studies of adsorption.
K (mol^−1) is the equilibrium constant.

fish populations = conditions: concentrations as low as; cited from earlier work
[5] = cited from earlier work; for Cs, solubility in water: experimental values
[6] = 23° C., estimated at t=30 minutes

Row | SMILES | removal by CCAC (in words) [1] | removal by P-CDP (in words) [2] | further results
1 | O=C(O)COc1ccc(Cl)cc1Cl [2,4-D] | removed fairly well | hardly removed | kobs [1, 6]: 11.0 g/mg/min; kobs [2, 6]: 72.9 g/mg/min
2 | Oc1ccc2ccccc2c1 [2-NO, 2-naphthol] |  |  | K, equilibrium constant [3]: ~30,000^c Mol^−1
3 | CC(C)(c1ccc(O)cc1)c1ccc(O)cc1 [BPA, Bisphenol A] |  |  | BPA/β-CD molar ratio at qmax,e [4]: 0.9; K, equilibrium constant ([4]; Langmuir): 56,500 Mol^−1; qmax,e, maximum adsorption capacity of pollutant on 1 g P-CDP at equilibrium ([4]; Langmuir): 88.5 mg/g
4 | O=S(=O)(c1ccc(O)cc1)c1ccc(O)cc1 [BPS, bisphenol S] |  |  | K, equilibrium constant [3]: ~17,000^c Mol^−1
5 | Oc1ccc(Cl)cc1Cl [DCP, 2,4-dichlorophenol] |  |  | K, equilibrium constant [3]: ~17,000^c Mol^−1
6 | CC(C)(C)NCC(O)c1ccc(O)c(CO)c1 (stereo not shown) [albuterol] | not effectively removed | removed well | 
7 | CC(N)Cc1ccccc1 (stereo not shown) [amphetamine] | not effectively removed | removed well | 
8 | CC(C)NCC(O)COc1ccc(CC(=O)O)cc1 (stereo not shown) [atenolol acid] | not effectively removed | removed well | 
9 | CC(C)NCC(O)COc1ccc(CC(N)=O)cc1 (stereo not shown) [atenolol] | not effectively removed | removed well | 
10 | COc1ccc2c3c1O[C@H]1[C@@H](O)C=C[C@H]4[C@@H](C2)N(C)CC[C@@]341 [codeine] | not effectively removed | removed well | 
11 | C#C[C@]1(O)CC[C@H]2[C@@H]3CCc4cc(O)ccc4[C@H]3CC[C@@]21C [ethinyl estradiol] |  |  | concentration that has caused the collapse of fish populations (fish populations): 5 pg/mL; pKa [5]: 10.4; Cs, solubility in water [5]: 0.002 mg/mL
12 | COc1ccc2c3c1O[C@H]1C(=O)CC[C@H]4[C@@H](C2)N(C)CC[C@]314 [hydrocodone] | not effectively removed | removed well | 
13 | CCc1cccc(C)c1N(C(=O)CCl)C(C)COC (stereo not shown) [metolachlor] |  |  | K, equilibrium constant [3]: ~35,000^c Mol^−1
14 | CN1CC[C@]23c4c5ccc(O)c4O[C@H]2[C@@H](O)C=C[C@H]3[C@H]1C5 [morphine] | not effectively removed | removed well | 
15 | CC(C)NCC(O)COc1cccc2ccccc12 (stereo not shown) [propranolol hydrochloride] |  |  | K, equilibrium constant [3]: ~72,000^c Mol^−1
16 | CC(C)NCC(O)COc1cccc2ccccc12 (stereo not shown) [propranolol] |  |  | Cs, solubility in water [5]: 0.050 mg/mL
17 | COc1cccc(C2(O)CCCCC2CN(C)C)c1 (stereo not shown) [tramadol] | not effectively removed | removed well | 
18 | COc1ccc(C(CN(C)C)C2(O)CCCCC2)cc1 (stereo not shown) [venlafaxine] | not effectively removed | removed well | 
